Experimental data as given in patent US10314811B2, “Compositions and methods for selectively inhibiting intestinal carboxylesterase 2 enzyme activity” (The Methodist Hospital, priority 2015, dated 2019).
Read-outs that look alike come from different tables or passages of the source.

How the values were obtained:
[1] = molecular target: T1, recombinant purified intestinal CES2 (Homo sapiens, UniProt O00748); assay: CES2 enzyme assay (4-nitrophenyl acetate hydrolysis); type: biochemical
T1 construct: purchased Sigma Aldrich E0412
T1 sequence (O00748 27-559): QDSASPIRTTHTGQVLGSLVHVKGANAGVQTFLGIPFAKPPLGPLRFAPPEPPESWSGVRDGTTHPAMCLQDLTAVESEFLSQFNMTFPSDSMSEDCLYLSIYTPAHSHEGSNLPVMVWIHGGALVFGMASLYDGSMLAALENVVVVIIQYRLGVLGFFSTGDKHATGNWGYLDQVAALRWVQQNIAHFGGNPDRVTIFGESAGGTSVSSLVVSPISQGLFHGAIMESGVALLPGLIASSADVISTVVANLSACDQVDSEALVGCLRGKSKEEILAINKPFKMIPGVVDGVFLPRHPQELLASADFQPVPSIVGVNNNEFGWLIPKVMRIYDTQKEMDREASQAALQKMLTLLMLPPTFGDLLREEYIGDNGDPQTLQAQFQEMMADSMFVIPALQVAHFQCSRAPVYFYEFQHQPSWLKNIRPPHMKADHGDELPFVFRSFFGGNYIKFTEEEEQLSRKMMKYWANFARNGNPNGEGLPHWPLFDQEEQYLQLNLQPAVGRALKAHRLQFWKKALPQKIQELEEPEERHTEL
Description: CES2 and CES1 enzyme assays were used for primary screening and IC50 determination of potential inhibitors. […] The esterase substrate, 4 nitrophenyl acetate (4 NPA), was used to detect enzyme activity. The recombinant purified intestinal CES2 and human liver CES1 enzymes and 4 NPA were purchased from Sigma Aldrich (product ID E0412, E0162, and N8130, respectively). […] The assays were conducted in a total volume of 300 μL in 96 well microtiter plates. Reaction mixtures consisted of the following: 100 μL 50 mM HEPES with 10 units of enzyme, 10 μL compound solution (various concentrations), 2 μL 300 mM 4 NPA and 188 μL 50 mM HEPES, pH 7.4. The test compound and 4 NPA solution were added to the wells first and then the reaction was initiated by the addition of enzyme solution. After incubation for 15 min. at 25° C., absorbance at 405 nm was measured using a microplate reader.

[2] = molecular target: T2, human liver CES1 (Homo sapiens, UniProt P23141); assay: CES1 enzyme assay (4-nitrophenyl acetate hydrolysis); type: biochemical; conditions: for inhibition of CES1: concentrations as high as 300 μM
T2 construct: purchased Sigma Aldrich E0162
T2 sequence (P23141 18-567): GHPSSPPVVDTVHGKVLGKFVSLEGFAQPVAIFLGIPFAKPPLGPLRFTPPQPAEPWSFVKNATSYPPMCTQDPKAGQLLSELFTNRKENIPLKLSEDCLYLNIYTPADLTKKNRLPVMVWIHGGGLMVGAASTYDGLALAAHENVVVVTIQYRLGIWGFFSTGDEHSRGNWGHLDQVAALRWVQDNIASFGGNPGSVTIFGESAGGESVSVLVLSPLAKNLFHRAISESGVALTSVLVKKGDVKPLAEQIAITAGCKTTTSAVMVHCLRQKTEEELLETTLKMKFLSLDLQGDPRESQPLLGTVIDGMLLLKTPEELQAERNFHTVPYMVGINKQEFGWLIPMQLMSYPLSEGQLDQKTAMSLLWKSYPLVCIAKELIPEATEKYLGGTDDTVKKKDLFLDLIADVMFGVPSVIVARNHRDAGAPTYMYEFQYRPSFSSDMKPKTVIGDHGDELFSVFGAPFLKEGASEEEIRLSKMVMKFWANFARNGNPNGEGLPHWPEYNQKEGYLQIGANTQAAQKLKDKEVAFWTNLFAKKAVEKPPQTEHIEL
Text: CES2 and CES1 enzyme assays were used for primary screening and IC50 determination of potential inhibitors. The assays are well established and widely used in compound discovery and lead optimization for CES inhibitors. See, e.g., Wadkins et al. 2004, Mol. Pharmacol. 65(6):1336 1343; Wadkins et al. 2005, J. Med. Chem. 48(8):2906 2915; Hicks et al. 2009, J. Med. Chem. 52(12):3742 3752; Hyatt et al. 2007, J. Med. Chem. 50(8):1876 1885; Hicks et al. 2007, Bioorg. Med. Chem. 15(11):3801 3817; Hyatt et al. 2007, J. Med. Chem., 50(23):5727 5734; Wadkins et al. 2007, Mol. Pharmacol. 71(3):713 723; and Young et al. 2010, J. Med. Chem., 53(24):8709 8715. CES converts esters into the corresponding alcohol and carboxylic acid. The esterase substrate, 4 nitrophenyl acetate (4 NPA), was used to detect enzyme activity. The recombinant purified intestinal CES2 and human liver CES1 enzymes and 4 NPA were purchased from Sigma Aldrich (product ID E0412, E0162, and N8130, respectively). […] The assays were conducted in a total volume of 300 μL in 96 well microtiter plates. Reaction mixtures consisted of the following: 100 μL 50 mM HEPES with 10 units of enzyme, 10 μL compound solution (various concentrations), 2 μL 300 mM 4 NPA and 188 μL 50 mM HEPES, pH 7.4. The test compound and 4 NPA solution were added to the wells first and then the reaction was initiated by the addition of enzyme solution. After incubation for 15 min. at 25° C., absorbance at 405 nm was measured using a microplate reader.

[3] = system: CT 26 tumor bearing Balb/cJ mice; assay: In vivo testing of anti-diarrheal activity with CPT-11 in tumor bearing mice (Example 3); conditions: for anti-tumor efficacy, as evaluated by tumor growth, versus CPT-11 only group / losses in body weight induced by CPT-11 treatment / survival rates as compared to CPT-11 alone: 40 mg/kg orally with CPT-11 50 mg/kg i.p.; for anti-tumor efficacy, as evaluated by tumor growth, versus CPT-11 only group: FIG. 1A; for losses in body weight induced by CPT-11 treatment: FIG. 1B at 14-16 days of treatment; for survival rates as compared to CPT-11 alone: FIG. 1C; for day on which diarrhea occurred: CPT-11 50 mg/kg i.p., CES2 inhibitor (if any) 40 mg/kg orally; for Percentage of mice having diarrhea: CPT-11 50 mg/kg i.p. day 1-10, CES2 inhibitor (if any) 40 mg/kg orally day 0-11
Description: CPT-11 was purchased from Selleck Chemicals. To obtain an injectable formulation, CPT-11 (20 mg/mL) was dissolved in a solution containing D sorbitol (45 mg/mL) and D lactic acid (0.9 mg/mL) in ddH2O, and heated to ˜70° C. to 90° C. for 5 to 10 min See Trifan et al. 2002, Cancer Res., 62(20):5778 5784. The pH of the solution was adjusted to 3.5 prior to sterile filtration. The solution was stored protected from light until just prior to administration.
Each of these compounds was dissolved separately in 100% DMSO and then diluted into a 0.5% carboxymethylcellulose solution. The final concentration of DMSO was less than 1%.
(§1) Healthy 6-8 week old female Balb/cJ mice were obtained from Jackson Laboratories (Bar Harbor, Me. USA). CT 26 tumor cells, derived from a murine Balb/c colon adenocarcinoma, were used to form tumors by subcutaneous injection of tumor cells into the posterior mid-dorsum of the mice. When tumors reached ˜500 mm^3 (˜10 days after implantation, defined as day 1), treatment was initiated. The mice were divided into five groups of 3-4 animals each and treated as follows:
(1) Vehicle group, mice received an equivalent volume of CPT-11 vehicle i.p. from day 1 to day 10, and an equivalent volume of compound vehicle orally from day 0 to day 11;
(2) CPT-11 only group, mice received CPT-11 (50 mg/kg) i.p. from day 1 to day 10, and an equivalent volume of compound vehicle orally from day 0 to day 11;
CPT-11 and the CES2 inhibitors were each administrated once per day during the experiment.
The CES2 inhibitor treatment groups were compared to the CPT-11 only group and to the vehicle control group. Four major parameters were examined to quantify the effect of CES2 inhibitors, namely, body weight change, presence of diarrhea, survival time, and average tumor size.

[4] = system: CT 26 tumor bearing Balb/cJ mice; assay: In vivo efficacy of CPT-11 plus hesperetin at different doses (Example 4); conditions: for Percentage of mice having diarrhea: CPT-11 alone
Text: as §1

[5] = 4 NPA substrate, 15 min at 25° C., pH 7.4, read-out: IC50 CES1 Assay
[6] = both hesperetin doses (20 mg/kg and 100 mg/kg) with CPT-11

## O=C(/C=C/c1ccccc1)c1ccc(O)cc1O [2′,4′ dihydroxychalcone, 2′,4′-dihydroxychalcone]
[1]
  Selectivity (IC50 CES1)/(IC50 CES2): >180
[1]; 4 NPA substrate, 15 min at 25° C., pH 7.4
  IC50: 1.66 µM
[2]; [5]
  IC50: > 300 µM
[2]
  inhibition of CES1: No significant inhibition
[3]
  anti-tumor efficacy, as evaluated by tumor growth, versus CPT-11 only group: No significant changes
  losses in body weight induced by CPT-11 treatment: reversed
  survival rates as compared to CPT-11 alone: improved
  day on which diarrhea occurred: 13 days
[3]; day 12 after treatment
  Percentage of mice having diarrhea: no mice

## CCc1c2c(nc3ccc(OC(=O)N4CCC(N5CCCCC5)CC4)cc13)-c1cc3c(c(=O)n1C2)COC(=O)[C@]3(O)CC [CPT-11, irinotecan]
[4]; day 8 after treatment
  Percentage of mice having diarrhea: 10%
[4]; day 9 after treatment
  Percentage of mice having diarrhea: 20%
[4]; day 10 after treatment
  Percentage of mice having diarrhea: 40%
[4]; day 11 after treatment
  Percentage of mice having diarrhea: 70%
[4]; day 12 after treatment
  Percentage of mice having diarrhea: 70%
[3]
  day on which diarrhea occurred: 9 days
[3]; day 9 after treatment
  Percentage of mice having diarrhea: 50%
[3]; day 10 after treatment
  Percentage of mice having diarrhea: 50%
[3]; day 11 after treatment
  Percentage of mice having diarrhea: 75%
[3]; day 12 after treatment
  Percentage of mice having diarrhea: 75%
[3]; day 13 after treatment
  Percentage of mice having diarrhea: 75%
[3]; day 14 after treatment
  Percentage of mice having diarrhea: 75%

## COc1ccc([C@@H]2CC(=O)c3c(O)cc(O)cc3O2)cc1O [hesperetin]
[4]; [6]
  number of animals exhibiting diarrhea as compared to CPT-11 alone: reduced
  onset of diarrhea as compared to CPT-11 alone: significantly delayed
[4]; co-administering hesperetin and CPT-11, both hesperetin doses, FIG. 2C
  survival of animals as compared to CPT-11 alone: improved
[4]; co-administration of hesperetin at both doses tested, FIG. 2B
  loss in body weight induced by CPT-11 administration: reduced
[4]; either dose of hesperetin (20 mg/kg or 100 mg/kg)
  anti-tumor efficacy of CPT-11 on co-administration: improved
[4]; hesperetin 20 mg/kg with CPT-11
  day of onset of diarrhea: 10 days
[4]; hesperetin 100 mg/kg with CPT-11
  day of onset of diarrhea: 12 days
[2]
  IC50: > 300 µM
  inhibition of CES1: No significant inhibition
[3]
  anti-tumor efficacy, as evaluated by tumor growth, versus CPT-11 only group: No significant changes
  losses in body weight induced by CPT-11 treatment: reversed
  survival rates as compared to CPT-11 alone: improved
  day on which diarrhea occurred: 12 days
[3]; day 12 after treatment
  Percentage of mice having diarrhea: 25%

## O=C1C[C@@H](c2ccc(O)cc2)Oc2cc(O)cc(O)c21 [naringenin]
[2]; [5]
  IC50: 159 µM
[3]
  anti-tumor efficacy, as evaluated by tumor growth, versus CPT-11 only group: No significant changes
